Measurements from US20220395500A1, “SMALL MOLECULE ACTIVATORS OF INTERFERON REGULATORY FACTOR 3 AND METHODS OF USE THEREOF” (Neuralexo, Inc., priority 2020, published 2022).
Like-named read-outs stand apart in the source and are kept apart here.

Tests used:
[1] = test system: NF-κB-SEAP reporter in THP1-Dual cells; experiment: THP1-Dual NF-κB-SEAP reporter counterscreen; type: cell-based, human; conditions: for EC50: read-out: THP1 NFkB EC50
Experimental: THP1 Dual (InvivoGen) cell suspensions were cultured in RPMI 1640 (Hyclone, Logan, Utah) supplemented with 10% fetal bovine serum (Hyclone), 100 U/mL Normocin (Invivogen), and 50 U/mL PenStrep (Gibco, Dublin, Ireland) between a density of 7·10^5-2·10^6 cells/mL. Every other passage, media was supplemented with 5 U/mL Blasticidin and 100 U/mL Zeocin to maintain the expression constructs. White, flat-bottom 384-well plates (Greiner, Kremsmunster, Austria, 781080) were seeded with 2.5·10^4 cells/well in a total of 50 μL media containing 5 ng/mL phorbolmyristic acid (PMA) using a Matrix WellMate (Thermo Scientific) dispenser. After 48 hours of incubation at 37° C., media was removed using a BioTek ELx405 CW plate washer set to aspirate and wash each well three times with 65 μL 1×PBS. Plates were reloaded with 50 μL media without PMA and treatments added. Lipopolysaccharide in dimethylsulfoxide (DMSO) was transferred to control wells using a HP D300 microdispenser to a final concentration of 313 ng/mL. Compounds from chemical library plates were copied using a Sciclone (Caliper LifeSciences) mounted with a 384-pin transfer tool to obtain a final concentration of 10 μM. After incubation with treatments for 24 hours, 10 μL of supernatant media from each well was transferred into a white, flat-bottom 384-well plate for luminescence readout and a black-walled, clear flat-bottom 384-well plate for absorbance readout.
Specifically, to enable screening of novel chemical entities (NCEs) in a larger screening effort, a robust high-throughput cell-based assay system for primary hit identification of ISRE activators based on the above-mentioned target validation was desired. Human ISRE activity was verified using a THP-1 monocyte line containing the NF-κB-SEAP and IRF-Lucia luciferase dual reporter (THP1-Dual; Invivogen) that features two reporter genes, SEAP (secreted embryonic alkaline phosphatase) and Lucia luciferase, thereby enabling the simultaneous study of the NF-κB and IRF signalling pathways. The Lucia luciferase reporter is under the control of an ISG54 (interferon-stimulated gene) minimal promoter in conjunction with five IFN-stimulated response elements. The SEAP gene is driven by an IFN-β minimal promoter fused to five copies of the NF-κB consensus transcriptional response element and three copies of the c-Rel binding site. Both reporter proteins are readily measurable in the cell culture supernatant when using QUANTI-LUC™ and QUANTI-Blue SEAP detection reagents.
Using the experimental design and data analysis outlined above, optimized assay conditions were obtained. The responsiveness of the human THP-1 Dual cell line was evaluated in an array of assay conditions to obtain sensitive and reproducible results for the activation of IRF and NF-κB reporters. An optimal plating density and differentiation protocol for these cells was established in a 384-well format. All transfer steps are fully automated using high throughput robotic equipment. Briefly, cells are seeded in differentiation medium using a Matrix WellMate fitted with the WellMate Stacker (Thermo Scientific) and incubated at 37° C. with 5% CO2 for 48 h. Following differentiation, cells are washed using a BioTek ELx405 Select CW plate washer and growth medium added with the Matrix WellMate. Programmed control treatments are added to wells using a D300 digital dispenser fitted with T8+ dispense heads (Hewlett Packard) designed to dispense nanoliter quantities of material. Compounds from library plates are added using a pin tool fitted to a Sciclone ALH 3000 Workstation (Caliper Life Sciences) programmed with Maestro v4.4. After treatment, plates are returned to incubators for 24 hours. To measure reporter expression, supernatant is collected using the Sciclone and dispensed into 2 plates: 1) a white 384-well assay plate for Lucia luminescence measurements and 2) a clear-bottom black 384-well assay plate for SEAP absorbance measurements. […]

[2] = THP1-Dual cytotoxicity (Cell Titer Glo, ATP); type: cell-based, human; conditions: human, THP1-Dual cells, read-out: Thp1 cytotox CC50
Outline: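 CC50, the concentration killing half the cells, was derived from ATP-dependent CellTiter-Glo luminescence. Cells were THP1-Dual (human) and compound was tested as an 8-point dose-response series, with viability read in the same plate.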

[3] = J774-Dual cytotoxicity; type: cell-based, mouse; conditions: mouse, J774-Dual cells, read-out: J774 cytotox CC50
Outline: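 CC50 derived from 8-point concentration series in mouse J774-Dual reporter cells, with viability read by CellTiter-Glo in the same plate. Run in parallel with EC50 and ISRE:NFκB ratio determination for cross-species confirmation.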

[4] = Homo sapiens, THP1-Dual, Human Reporter Cell Line, 8-point dose response
[5] = Homo sapiens, THP1-Dual, Human Reporter Cell Line THP1

COc1cccc(COc2ccc(C(=O)Nc3ccc(N4CCN(C(=O)c5cccs5)CC4)cc3)cc2)c1 [NA-24, 4-((3-methoxybenzyl)oxy)-N-(4-(4-(thiophene-2-carbonyl)piperazin-1-yl)phenyl)benzamide]
EC50 [1, 4]: 4.16 µM | CC50 ([2]; Human Reporter Cell Line): 16.8 µM | CC50 ([3]; Mouse Reporter Cell Line): 36.2 µM

O=C(Nc1ccc(N2CCN(C(=O)c3cccs3)CC2)cc1)c1ccc(-c2ccccc2)nc1 [NA-41]
EC50 [1, 4]: 12.5 µM | CC50 ([2]; Human Reporter Cell Line): > 25 µM | CC50 ([3]; Mouse Reporter Cell Line): > 25 µM

COc1ccc(C(=O)Nc2nc(-c3cc4ccccc4oc3=O)cs2)cc1 [ND-1]
EC50 [1, 5]: ~12.7 µM | CC50 ([2]; Human Reporter Cell Line THP1): > 25 µM | CC50 ([3]; Mouse Reporter Cell Line J774): > 25 µM

O=C(Nc1ccc(N2CCN(C(=O)c3cccs3)CC2)cc1)c1ccc(OCc2ccccc2)nc1 [NA-59]
EC50 [1, 4]: ~2.57 µM | CC50 ([2]; Human Reporter Cell Line): 16 µM | CC50 ([3]; Mouse Reporter Cell Line): 36.1 µM

O=C(Nc1ccc(N2CCN(C(=O)c3cccs3)CC2)cc1)c1ccc(OCc2ccc(F)c(F)c2F)cc1 [NA-23]
EC50 [1, 4]: ~2.31 µM | CC50 ([2]; Human Reporter Cell Line): 12.7 µM | CC50 ([3]; Mouse Reporter Cell Line): 22.1 µM

Cc1cc(NC(=O)c2sc3cc(Cl)ccc3c2Cl)ccc1NC(=O)c1ccco1 [NC-2]
EC50 [1, 4]: 15.4 µM | CC50 ([2]; Human Reporter Cell Line): > 25 µM | CC50 ([3]; Mouse Reporter Cell Line): > 25 µM

COCOc1ccc2oc(-c3ccc(C)c([N+](=O)[O-])c3)nc2c1 [ND-96]
EC50 [1, 5]: ~4.09 µM | CC50 ([2]; Human Reporter Cell Line THP1): 30.1 µM | CC50 ([3]; Mouse Reporter Cell Line J774): > 25 µM

O=C(Nc1ccc(N2CCOCC2)c(C(=O)Nc2ccc(OCc3ccccc3)cc2)c1)c1cccs1 [NB-18]
EC50 [1, 5]: 3.66 µM | CC50 ([2]; Human Reporter Cell Line THP1): > 25 µM | CC50 ([3]; Mouse Reporter Cell Line J774): > 25 µM

O=C(Nc1ccc(N2CCN(C(=O)c3cccs3)CC2)cc1)c1cccc2c(Br)cccc12 [NA-21, 5-bromo-N-{4-[4-(2-thienylcarbonyl)-1-piperazinyl]phenyl}-1-naphthamide]
EC50 [1, 4]: 1.08 µM | CC50 ([2]; Human Reporter Cell Line): 39.4 µM | CC50 ([3]; Mouse Reporter Cell Line): 63.8 µM

COc1ccc(C(=O)Nc2cc(-c3nc4ccccc4s3)ccc2C)cc1[N+](=O)[O-] [ND-38]
EC50 ([1]; Human Reporter Cell Line THP1): ~3.12 µM

COc1ccc(C(=O)Nc2cc(-c3nc4ccccc4s3)ccc2C)cc1[N+](=O)[O-] [ND52, N-[5-(1,3-benzothiazol-2-yl)-2-methylphenyl]-4-methoxy-3-nitrobenzamide]
EC50 [1, 5]: ~5.51 µM | CC50 ([2]; Human Reporter Cell Line THP1): 27.6 µM

O=C(Nc1ccc(N2CCN(C(=O)c3cccs3)CC2)cc1)c1ccc(Br)cc1 [NA-14]
EC50 [1, 4]: ~2.42 µM | CC50 ([2]; Human Reporter Cell Line): > 25 µM | CC50 ([3]; Mouse Reporter Cell Line): > 25 µM

COc1ccc(C(=O)Nc2cc(-c3nc4cc(C(C)C)ccc4o3)ccc2C)cc1[N+](=O)[O-] [ND-2]
EC50 [1, 5]: 4.47 µM | CC50 ([2]; Human Reporter Cell Line THP1): 27.6 µM | CC50 ([3]; Mouse Reporter Cell Line J774): 65.8 µM

O=C(Cc1ccc(Cl)cc1)Nc1cccc(-c2nnc(-c3ccco3)o2)c1 [ND-7]
EC50 [1, 5]: 6 µM | CC50 ([2]; Human Reporter Cell Line THP1): > 25 µM | CC50 ([3]; Mouse Reporter Cell Line J774): > 25 µM

O=C(Nc1ccc(N2CCN(C(=O)c3cccs3)CC2)cc1)c1sc2cc(Cl)ccc2c1Cl [NA-20]
EC50 [1, 4]: 2.76 µM | CC50 ([2]; Human Reporter Cell Line): 11.8 µM | CC50 ([3]; Mouse Reporter Cell Line): 43.6 µM

Cc1ccc(NC(=O)c2cc(NC(=O)Cc3ccccc3)ccc2N2CCOCC2)cc1Cl [NB-3]
activation at 25 µM ([1]; THP1-Dual, 24 h, Human Reporter Cell Line THP1, @25 uM, read-out: THP1 NFkB % activation at peak): 38% | CC50 ([2]; Human Reporter Cell Line THP1): 52.5 µM | CC50 ([3]; Mouse Reporter Cell Line J774): > 25 µM

CC(C)CC(=O)Nc1ccc2oc(-c3cccc(I)c3)nc2c1 [ND-5]
EC50 [1, 5]: 12.3 µM | CC50 ([2]; Human Reporter Cell Line THP1): > 25 µM | CC50 ([3]; Mouse Reporter Cell Line J774): > 25 µM

O=C(Nc1ccc(N2CCN(C(=O)c3cccs3)CC2)cc1)c1ccc(-c2cc3ccccc3oc2=O)cc1 [NA-32]
EC50 [1, 4]: 3.13 µM | CC50 ([2]; Human Reporter Cell Line): 36.6 µM | CC50 ([3]; Mouse Reporter Cell Line): 67.2 µM
